According to patent US20240140965A1, “TRICYCLIC PESTICIDAL COMPOUNDS” (priority 2021, published 2024):

Tests used:
Assay type in all cases: in vivo
[1] = system: boll weevil (Anthonomus grandis); assay: Boll weevil (Anthonomus grandis) egg and larval mortality, insect diet microtiter plate; conditions: 120 h, read-out: mortality in comparison with untreated controls
Method: For evaluating control of boll weevil (Anthonomus grandis) the test unit consisted of 96-well-microtiter plates containing an insect diet and 5-10 A. grandis eggs. The compounds were formulated using a solution containing 75% v/v water and 25% v/v DMSO. Different concentrations of formulated compounds were sprayed onto the insect diet at 5 μl, using a custom built micro atomizer, at two replications. After application, microtiter plates were incubated at about 25±1° C. and about 75±5% relative humidity for 5 days. Egg and larval mortality was then visually assessed.

[2] = system: yellow fever mosquito (Aedes aegypti); assay: whole plant or invertebrate; conditions: 48 h, larval mortality after 2 days, read-out: mortality in comparison with untreated controls
Method: For evaluating control of yellow fever mosquito (Aedes aegypti) the test unit consisted of 96-well-microtiter plates containing 200 μl of tap water per well and 5-15 freshly hatched A. aegypti larvae. The active compounds were formulated using a solution containing 75% (v/v) water and 25% (v/v) DMSO. Different concentrations of formulated compounds or mixtures were sprayed onto the insect diet at 2.5 μl, using a custom built micro atomizer, at two replications. After application, microtiter plates were incubated at 28+1° C., 80+5% RH for 2 days. Larval mortality was then visually assessed.

[3] = system: tobacco budworm (Heliothis virescens); assay: Tobacco budworm (Heliothis virescens) egg and larval mortality, insect diet microtiter plate; conditions: 120 h, read-out: mortality in comparison with untreated controls
Method: For evaluating control of tobacco budworm (Heliothis virescens) the test unit consisted of 96-well-microtiter plates containing an insect diet and 15-25 H. virescens eggs.
The compounds were formulated using a solution containing 75% v/v water and 25% v/v DMSO. Different concentrations of formulated compounds were sprayed onto the insect diet at 10 μl, using a custom built micro atomizer, at two replications. After application, microtiter plates were incubated at about 28±1° C. and about 80±5% relative humidity for 5 days. Egg and larval mortality was then visually assessed.

[4] = system: Southern Armyworm (Spodoptera eridania), 2nd instar larvae; assay: Southern armyworm (Spodoptera eridania) 2nd instar larvae mortality on sprayed lima bean plants; conditions: 96 h, read-out: mortality in comparison with untreated controls
Method: The active compounds were formulated by a Tecan liquid handler in 100% cyclohexanone as a 10,000 ppm solution supplied in tubes. The 10,000 ppm solution was serially diluted in 100% cyclohexanone to make interim solutions. These served as stock solutions for which final dilutions were made by the Tecan in 50% acetone:50% water (v/v) into 10 or 20 ml glass vials. A nonionic surfactant (Kinetic®) was included in the solution at a volume of 0.01% (v/v). The vials were then inserted into an automated electrostatic sprayer equipped with an atomizing nozzle for application to plants/insects. Lima bean plants (variety Sieva) were grown 2 plants to a pot and selected for treatment at the 1st true leaf stage. Test solutions were sprayed onto the foliage by an automated electrostatic plant sprayer equipped with an atomizing spray nozzle. The plants were dried in the sprayer fume hood and then removed from the sprayer. Each pot was placed into perforated plastic bags with a zip closure. Ten to 11 armyworm larvae were placed into the bag and the bags zipped closed. Test plants were maintained in a growth room at about 25° C. and about 20-40% relative humidity for 4 days, avoiding direct exposure to fluorescent light (14:10 light:dark photoperiod) to prevent trapping of heat inside the bags. Mortality and reduced feeding were assessed 4 days after treatment, compared to untreated control plants.

[5] = system: Green Peach Aphid (Myzus persicae); assay: Green peach aphid (Myzus persicae) mortality on sprayed bell pepper plants; conditions: 120 h, read-out: mortality in comparison with untreated controls
Method: The active compounds were formulated by a Tecan liquid handler in 100% cyclohexanone as a 10,000 ppm solution supplied in tubes. The 10,000 ppm solution was serially diluted in 100% cyclohexanone to make interim solutions. These served as stock solutions for which final dilutions were made by the Tecan in 50% acetone:50% water (v/v) into 10or 20 ml glass vials. A nonionic surfactant (Kinetic®) was included in the solution at a volume of 0.01% (v/v). The vials were then inserted into an automated electrostatic sprayer equipped with an atomizing nozzle for application to plants/insects. Bell pepper plants at the first true-leaf stage were infested prior to treatment by placing heavily infested leaves from the main colony on top of the treatment plants. Aphids were allowed to transfer overnight to accomplish an infestation of 30-50 aphids per plant and the host leaves were removed. The infested plants were then sprayed by an automated electrostatic plant sprayer equipped with an atomizing spray nozzle. The plants were dried in the sprayer fume hood, removed, and then maintained in a growth room under fluorescent lighting in a 14:10 light:dark photoperiod at about 25° C. and about 20-40% relative humidity. Aphid mortality on the treated plants, relative to mortality on untreated control plants, was determined after 5 days.

[6] = system: Red Spider Mite (Tetranychus kanzawai); assay: Red spider mite (Tetranychus kanzawai) mortality on sprayed cowpea beans; conditions: 72 h, read-out: mortality in comparison with untreated controls
Method: The active compound is dissolved at the desired concentration in a mixture of 1:1 (vol:vol) distilled water:acetone. Add surfactant (Kinetic) is added at a rate of 0.01% (vol/vol). The test solution is prepared at the day of use. Potted cowpea beans of 4-5 days of age are cleaned with tap water and sprayed with 1-2 ml of the test solution using air driven DeVilbiss® hand atomizer at 20-30 psi (≈1.38 to 2.07 bar). The treated plants are allowed to air dry and afterwards inoculated with 30 or more mites by clipping a cassava leaf section from rearing population. Treated plants are placed inside a holding room at about 25-26° C. and about 65-70% relative humidity. Estimate percent mortality is assessed 72 hours after treatment.

CCS(=O)(=O)c1cc(-c2ccc(F)cc2)cnc1-c1cn2c(n1)SCc1c-2cccc1C(F)(F)F [Compound I.1, 2-[3-ethylsulfonyl-5-(4-fluorophenyl)-2-pyridyl]-6-(trifluoromethyl)-5H-imidazo[1,2-a][3,1]benzothiazine]
> 70%: mortality at 10 ppm [1] | mortality at 80 ppm [2] | mortality at 30 ppm [3] | mortality at 1 ppm [4]

CCS(=O)(=O)c1cc(-c2ccc(F)cc2)cnc1-c1cn2c(n1)CSc1c-2cccc1C(F)(F)F [Compound I.2, 2-[3-ethylsulfonyl-5-(4-fluorophenyl)-2-pyridyl]-6-(trifluoromethyl)-4H-imidazo[2,1-c][1,4]benzothiazine]
> 70%: mortality at 10 ppm [1] | mortality at 90 ppm [5] | mortality at 80 ppm [2] | mortality at 30 ppm [3] | mortality at 1 ppm [4]

CCS(=O)(=O)c1cc(-c2ccc(F)cc2)cnc1-c1cn2c(n1)OCc1c-2cccc1C(F)(F)F [Compound I.3, 2-[3-ethylsulfonyl-5-(4-fluorophenyl)-2-pyridyl]-6-(trifluoromethyl)-5H-imidazo[1,2-a][3,1]benzoxazine]
> 70%: mortality at 10 ppm [1] | mortality at 800 ppm [6] | mortality at 90 ppm [5] | mortality at 80 ppm [2] | mortality at 30 ppm [3] | mortality at 1 ppm [4]

CCS(=O)(=O)c1cc(-c2ccc(F)cc2)cnc1-c1cn2c(n1)COc1c-2cccc1C(F)(F)F [Compound I.4, 2-[3-ethylsulfonyl-5-(4-fluorophenyl)-2-pyridyl]-6-(trifluoromethyl)-4H-imidazo[2,1-c][1,4]benzoxazine]
> 70%: mortality at 10 ppm [1] | mortality at 80 ppm [2] | mortality at 30 ppm [3] | mortality at 1 ppm [4]

CCS(=O)(=O)c1cc(N=S(C)(C)=O)cnc1-c1cn2c(n1)COc1c-2cccc1C(F)(F)F [Compound I.5, [5-ethylsulfonyl-6-[6-(trifluoromethyl)-4H-imidazo[2,1-c][1,4]benzoxazin-2-yl]-3-pyridyl]imino-dimethyl-oxo-lambda6-sulfane]
> 70%: mortality at 250 ppm [1] | mortality at 250 ppm [5] | mortality at 250 ppm ([2]; 250 ppm)
